Reference: ChEMBL document CHEMBL6115002, “Discovery of novel sitolactone derivative leading to PANoptosis and differentiation of acute myeloid leukemia cells” (Eur J Med Chem, 2025)
The source made the active and inactive calls. The rule behind the calls is not given here.

Legend:
HCT-116 [1] = assay: Anti-cancer activity against human HCT-116 cells assessed as reduction in number of spheroids incubated for 24 hrs; assay type: functional, cell-based
A549 = assay: Antiproliferative activity against human A549 cells assessed as inhibition of cell proliferation incubated for 72 hrs by CCK-8 assay; assay type: functional, cell-based; conditions: A549, 72 h
SW1990 = assay: Antiproliferative activity against human SW1990 cells assessed as inhibition of cell proliferation incubated for 72 hrs by CCK-8 assay; assay type: functional, cell-based; conditions: SW1990, 72 h
WEHI-3 [2] = assay: PANoptosis in mouse WEHI-3 cells assessed as cell death at 1.2 uM incubated for 72 hrs by optical microscopic analysis; assay type: functional, cell-based
Kasumi 1 [3] = assay: Disruption of pyruvate metabolic pathway in human Kasumi 1 cells by KEGG enrichment analysis; assay type: functional, cell-based
HCT-116 [4] = assay: Inhibition of tumor sphere formation in human HCT-116 cells at 1.25 uM incubated for 24 hrs; assay type: functional, cell-based
HCT-116 [5] = assay: Antiproliferative activity against human HCT-116 cells assessed as inhibition of cell proliferation incubated for 72 hrs by CCK-8 assay; assay type: functional, cell-based; conditions: HCT-116, 72 h
WEHI-3 [6] = assay: Induction of cell cycle arrest in mouse WEHI-3 cells assessed as increase in P53 level at 0.15 to 1.2 uM incubated for 24 hrs by Western blotting analysis; assay type: functional, cell-based; conditions: dose 0.15-1.2 µM
HCT-116 [7] = assay: Anti-cancer activity against human HCT-116 cells assessed as reduction in size of spheroids incubated for 24 hrs; assay type: functional, cell-based
Kasumi 1 [8] = assay: Induction of cell cycle arrest in human Kasumi 1 cells assessed as increase in accumulation of cells at S phase at 1 uM incubated for 24 hrs by propidium iodide staining based flow cytometric analysis (reference value: 39.77%); assay type: functional
PC-3 = assay: Antiproliferative activity against human PC-3 cells assessed as inhibition of cell proliferation incubated for 72 hrs by CCK-8 assay; assay type: functional, cell-based; conditions: PC-3, 72 h
WEHI-3 [9] = assay: Induction of pyroptosis in mouse WEHI-3 cells assessed as effect on cleaved N-GSDMB at 0.6 to 2.5 uM incubated for 24 hrs by Western blotting analysis; assay type: functional, cell-based; conditions: dose 0.6-2.5 µM
BXPC-3 = assay: Antiproliferative activity against human BXPC-3 cells assessed as inhibition of cell proliferation incubated for 72 hrs by CCK-8 assay; assay type: functional, cell-based; conditions: BXPC-3, 72 h
Kasumi 1 [10] = assay: Induction of cell cycle arrest in human Kasumi 1 cells assessed as increase in accumulation of cells at G1 phase at 0.5 uM incubated for 24 hrs by propidium iodide staining based flow cytometric analysis (reference value: 50.41%); assay type: functional
WEHI-3 [11] = assay: Induction of apoptosis in mouse WEHI-3 cells assessed as increase in cleaved PARP-1 level incubated for 72 hrs by Western blotting analysis; assay type: functional, cell-based; conditions: dose 0.625-5 µM
[12] = Induction of cell cycle arrest in mouse WEHI-3 cells assessed as increase in accumulation of cells at G2 phase at 0.25 uM incubated for 24 hrs by propidium iodide staining based flow cytometric analysis (reference value: 1.85%); assay type: functional
PANC-1 = assay: Antiproliferative activity against human PANC-1 cells assessed as inhibition of cell proliferation incubated for 72 hrs by CCK-8 assay; assay type: functional, cell-based; conditions: PANC-1, 72 h
RKO = assay: Antiproliferative activity against human RKO cells assessed as inhibition of cell proliferation incubated for 72 hrs by CCK-8 assay; assay type: functional, cell-based
HL-60 = assay: Antiproliferative activity against human HL-60 cells assessed as inhibition of cell proliferation incubated for 72 hrs by CCK-8 assay; assay type: functional, cell-based; conditions: HL-60, 72 h
[13] = Induction of cell cycle arrest in mouse WEHI-3 cells assessed as increase in accumulation of cells at S phase at 1 uM incubated for 24 hrs by propidium iodide staining based flow cytometric analysis (reference value: 51.22%); assay type: functional
[14] = Induction of cell cycle arrest in mouse WEHI-3 cells assessed as increase in accumulation of cells at S phase at 0.5 uM incubated for 24 hrs by propidium iodide staining based flow cytometric analysis (reference value: 51.22%); assay type: functional
[15] = Permeability of compound in human Caco-2 cells; assay type: ADME, cell-based
Kasumi 1 [16] = assay: Induction of apoptosis in human Kasumi 1 cells assessed as increase in caspase-3 level incubated for 72 hrs by Western blotting analysis; assay type: functional, cell-based; conditions: dose 0.625-5 µM
WEHI-3 [17] = assay: Induction of cell differentiation in mouse WEHI-3 cells assessed as increase in CD11B expression by Western blotting analysis; assay type: functional, cell-based; conditions: dose 0.125-1 µM
Kasumi 1 [18] = assay: Disruption of citrate metabolic pathway in human Kasumi 1 cells by KEGG enrichment analysis; assay type: functional, cell-based
MOLM-13 = assay: Antiproliferative activity against human MOLM-13 cells assessed as inhibition of cell proliferation incubated for 72 hrs by CCK-8 assay; assay type: functional, cell-based; conditions: MOLM-13, 72 h
WEHI-3 [19] = assay: Induction of pyroptosis in mouse WEHI-3 cells assessed as increase in p-MLKL level at 0.625 to 5 uM incubated for 72 hrs by Western blotting analysis; assay type: functional, cell-based; conditions: dose 0.625-5 µM
[20] = Induction of cell cycle arrest in mouse WEHI-3 cells assessed as increase in accumulation of cells at G1 phase at 0.25 uM incubated for 24 hrs by propidium iodide staining based flow cytometric analysis (reference value: 46.93%); assay type: functional
WEHI-3 [21] = assay: Inhibition of colony formation in mouse WEHI-3 cells incubated for 15 days by crystal violet staining based analysis; assay type: functional, cell-based; conditions: dose 0.5-1 µM, time 15.0 day
WEHI-3 [22] = assay: Antitumor activity against mouse WEHI-3 cells implanted in Balb/c mouse assessed as reduction in leukocyte number at 100 to 200 mg/kg, po administered (4aR,6aS,7S,9aS,9bS)-2-(((S)-2-(hydroxymethyl)pyrrolidin-1-yl)methyl)-6a-methyl7 ((triisopropylsilyl)oxy)decahydrocyclopenta[f]chromen-3(2H)-one as prodrug once daily and measured after 15 days by H and E staining based analysis; assay type: functional, organism-based; conditions: dose 100-200 mg/kg, time 15.0 day
[23] = Toxicity in Balb/c mouse implanted with mouse WEHI-3 cells assessed as change in body weight at 100 to 200 mg/kg, po administered (4aR,6aS,7S,9aS,9bS)-2-(((S)-2-(hydroxymethyl)pyrrolidin-1-yl)methyl)-6a-methyl7 ((triisopropylsilyl)oxy)decahydrocyclopenta[f]chromen-3(2H)-one as prodrug once daily and measured after 15 days; assay type: organism-based; conditions: in vivo, 360 h, dose 100-200 mg/kg, time 15 day
Kasumi 1 [24] = assay: Induction of cell cycle arrest in human Kasumi 1 cells assessed as increase in P53 level at 0.15 to 1.2 uM incubated for 24 hrs by Western blotting analysis; assay type: functional, cell-based; conditions: dose 0.15-1.2 µM
WEHI-3 [25] = assay: Antitumor activity against mouse WEHI-3 cells implanted in Balb/c mouse assessed as reduction in liver metastasis at 1 mg/kg, po administered daily for 15 days by H and E staining based analysis; assay type: functional, organism-based; conditions: time 15.0 day
[26] = Induction of cell cycle arrest in mouse WEHI-3 cells assessed as increase in accumulation of cells at G1 phase at 1 uM incubated for 24 hrs by propidium iodide staining based flow cytometric analysis (reference value: 46.93%); assay type: functional
NCI-H460 = assay: Inhibition of tumor sphere formation in human NCI-H460 cells incubated for 24 hrs; assay type: functional, cell-based
[27] = Antiproliferative activity against mouse WEHI-3 cells assessed as inhibition cell proliferation incubated for 72 hrs by MTT assay; assay type: functional, cell-based; conditions: WEHI-3, 72 h

## C=C1C[C@@H]2[C@@H](CC[C@]3(C)[C@@H](O[Si](C(C)C)(C(C)C)C(C)C)CC[C@@H]23)OC1=O
HCT-116 [1]
  Activity: Active
A549
  IC50: 5.24 µM
SW1990
  IC50: > 10 µM
WEHI-3 [2]
  Activity: Active
Kasumi 1 [3]
  Activity: Active
HCT-116 [4]
  inhibition: Active
HCT-116 [5]
  IC50: 1.93 µM
WEHI-3 [6]
  Activity: Active
HCT-116 [7]
  Activity: Active
Kasumi 1 [8]
  Activity: 22.53%
PC-3
  IC50: 2.09 µM
WEHI-3 [9]
  Activity: Active
BXPC-3
  IC50: > 10 µM
Kasumi 1 [10]
  Activity: 53.53%
WEHI-3 [11]
  Activity: Dose-dependent-effect
[12]
  Activity: 1.76%
PANC-1
  IC50: 1.31 µM
RKO
  IC50: 2.07 µM
HL-60
  IC50: 0.9 µM
[13]
  Activity: 32.07%
[14]
  Activity: 43.52%
[15]
  permeability: Permeable
Kasumi 1 [16]
  Activity: Dose-dependent-effect
WEHI-3 [17]
  Activity: Dose-dependent-effect
Kasumi 1 [18]
  Activity: Active
MOLM-13
  IC50: 1.53 µM
WEHI-3 [19]
  Activity: Active
[20]
  Activity: 51.78%
WEHI-3 [21]
  inhibition: Dose-dependent-effect
WEHI-3 [22]
  Activity: Active
[23]
  Activity: Non-toxic
Kasumi 1 [24]
  Activity: Active
WEHI-3 [25]
  Activity: Active
[26]
  Activity: 64.54%
NCI-H460
  inhibition: Active
[27]
  IC50: 0.42 µM
